From ChEMBL document CHEMBL5528002, “Identification of selective 5-LOX and FLAP inhibitors as novel anti-inflammatory agents by ligand-based virtual screening” (Eur J Med Chem, 2024)
Activity calls are given as the source filed them. The rule behind the calls is not given here.

Legend:
[1] = test system: Macrophage cell line; experiment: Effect on lipid mediator formation in human M1-like phenotype MDM cells by measuring arachidonic acid formation at 10 uM pre-incubated for 15 mins followed by SACM stimulation and measured after 90 mins by UPLC-MS/MS analysis (reference value: 69242 +/- 58 pg/ml); format: functional; settings: time 105 min, 1.75 h
[2] = test system: Macrophage cell line; experiment: Effect on lipid mediator formation in human M2-like phenotype MDM cells by measuring arachidonic acid formation at 10 uM pre-incubated for 15 mins followed by SACM stimulation and measured after 90 mins by UPLC-MS/MS analysis (reference value: 92007 +/- 4892 pg/ml); format: functional; settings: time 105 min, 1.75 h
[3] = test system: Macrophage cell line; experiment: Effect on lipid mediator formation in human M2-like phenotype MDM cells by measuring 17-HDHA formation at 10 uM pre-incubated for 15 mins followed by SACM stimulation and measured after 90 mins by UPLC-MS/MS analysis relative to control; format: functional; settings: time 105 min, 1.75 h
[4] = test system: Macrophage cell line; experiment: Effect on lipid mediator formation in human M2-like phenotype MDM cells by measuring 15-HETE formation at 10 uM pre-incubated for 15 mins followed by SACM stimulation and measured after 90 mins by UPLC-MS/MS analysis (reference value: 18426 +/- 5001 pg/ml); format: functional; settings: time 105 min, 1.75 h
[5] = test system: Macrophage cell line; experiment: Effect on lipid mediator formation in human M1-like phenotype MDM cells by measuring 5S,6R-diHETE formation at 10 uM pre-incubated for 15 mins followed by SACM stimulation and measured after 90 mins by UPLC-MS/MS analysis (reference value: 226 +/- 78 pg/ml); format: functional; settings: time 105 min, 1.75 h
[6] = test system: Macrophage cell line; experiment: Effect on lipid mediator formation in human M1-like phenotype MDM cells by measuring LTB4 formation at 10 uM pre-incubated for 15 mins followed by SACM stimulation and measured after 90 mins by UPLC-MS/MS analysis relative to control; format: functional; settings: time 105 min, 1.75 h
[7] = test system: Macrophage cell line; experiment: Effect on lipid mediator formation in human M1-like phenotype MDM cells by measuring 5-HEPE formation at 10 uM pre-incubated for 15 mins followed by SACM stimulation and measured after 90 mins by UPLC-MS/MS analysis relative to control; format: functional; settings: time 105 min, 1.75 h
[8] = test system: Macrophage cell line; experiment: Effect on lipid mediator formation in human M1-like phenotype MDM cells by measuring 12-HETE formation at 10 uM pre-incubated for 15 mins followed by SACM stimulation and measured after 90 mins by UPLC-MS/MS analysis (reference value: 181 +/- 39 pg/ml); format: functional; settings: time 105 min, 1.75 h
[9] = test system: Macrophage cell line; experiment: Effect on lipid mediator formation in human M1-like phenotype MDM cells by measuring 17-HDHA formation at 10 uM pre-incubated for 15 mins followed by SACM stimulation and measured after 90 mins by UPLC-MS/MS analysis (reference value: 360 +/- 89 pg/ml); format: functional; settings: time 105 min, 1.75 h
[10] = test system: Macrophage cell line; experiment: Effect on lipid mediator formation in human M1-like phenotype MDM cells by measuring PGF2alpha formation at 10 uM pre-incubated for 15 mins followed by SACM stimulation and measured after 90 mins by UPLC-MS/MS analysis (reference value: 471 +/- 100 pg/ml); format: functional; settings: time 105 min, 1.75 h
[11] = test system: Macrophage cell line; experiment: Effect on lipid mediator formation in human M1-like phenotype MDM cells by measuring 14-HDHA formation at 10 uM pre-incubated for 15 mins followed by SACM stimulation and measured after 90 mins by UPLC-MS/MS analysis (reference value: 100 +/- 21 pg/ml); format: functional; settings: time 105 min, 1.75 h
[12] = test system: Macrophage cell line; experiment: Effect on lipid mediator formation in human M2-like phenotype MDM cells by measuring LTB4 formation at 10 uM pre-incubated for 15 mins followed by SACM stimulation and measured after 90 mins by UPLC-MS/MS analysis relative to control; format: functional; settings: time 105 min, 1.75 h
[13] = test system: Macrophage cell line; experiment: Effect on lipid mediator formation in human M2-like phenotype MDM cells by measuring EPA formation at 10 uM pre-incubated for 15 mins followed by SACM stimulation and measured after 90 mins by UPLC-MS/MS analysis (reference value: 23813 +/- 1138 pg/ml); format: functional; settings: time 105 min, 1.75 h
[14] = test system: Macrophage cell line; experiment: Effect on lipid mediator formation in human M2-like phenotype MDM cells by measuring PGE2 formation at 10 uM pre-incubated for 15 mins followed by SACM stimulation and measured after 90 mins by UPLC-MS/MS analysis relative to control; format: functional; settings: time 105 min, 1.75 h
[15] = test system: Macrophage cell line; experiment: Effect on lipid mediator formation in human M2-like phenotype MDM cells by measuring RvD5 formation at 10 uM pre-incubated for 15 mins followed by SACM stimulation and measured after 90 mins by UPLC-MS/MS analysis relative to control; format: functional; settings: time 105 min, 1.75 h
[16] = test system: Neutrophil; experiment: Inhibition of ROS production in PMA-induced human Neutrophil cells at 10 uM incubated for 10 mins by DCFH-DA dye based fluorometric assay; format: functional, cell-based
[17] = test system: Macrophage cell line; experiment: Effect on lipid mediator formation in human M2-like phenotype MDM cells by measuring TXB2 formation at 10 uM pre-incubated for 15 mins followed by SACM stimulation and measured after 90 mins by UPLC-MS/MS analysis (reference value: 4488 +/- 452 pg/ml); format: functional; settings: time 105 min, 1.75 h
[18] = molecular target: T1, Polyunsaturated fatty acid 5-lipoxygenase (Homo sapiens) (UniProt P09917); experiment: Inhibition of 5-LOX in human Neutrophil at 10 uM preincubated with compound for 15 mins followed by A23187 addition measured after 10 mins by RP-HPLC analysis relative to control; format: cell-based; settings: time 25.0 min
T1 sequence (whole entry): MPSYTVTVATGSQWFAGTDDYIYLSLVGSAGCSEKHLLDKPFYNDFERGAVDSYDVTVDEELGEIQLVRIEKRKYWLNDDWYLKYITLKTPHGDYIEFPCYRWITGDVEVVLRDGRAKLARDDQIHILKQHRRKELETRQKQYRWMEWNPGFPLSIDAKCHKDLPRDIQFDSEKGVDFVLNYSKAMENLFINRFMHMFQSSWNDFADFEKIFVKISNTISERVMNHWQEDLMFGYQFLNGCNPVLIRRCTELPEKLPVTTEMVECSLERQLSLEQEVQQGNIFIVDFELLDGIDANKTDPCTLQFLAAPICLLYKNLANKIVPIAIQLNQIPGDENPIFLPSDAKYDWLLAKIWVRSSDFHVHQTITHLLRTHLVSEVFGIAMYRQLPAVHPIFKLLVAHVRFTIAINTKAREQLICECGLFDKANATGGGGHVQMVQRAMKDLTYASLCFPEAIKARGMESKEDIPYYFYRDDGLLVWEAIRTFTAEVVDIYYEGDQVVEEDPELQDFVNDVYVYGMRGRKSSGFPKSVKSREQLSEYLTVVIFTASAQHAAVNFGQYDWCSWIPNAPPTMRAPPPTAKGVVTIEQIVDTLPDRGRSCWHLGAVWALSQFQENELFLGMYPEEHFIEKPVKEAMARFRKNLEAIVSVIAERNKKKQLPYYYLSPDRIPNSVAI

[19] = test system: Macrophage cell line; experiment: Effect on lipid mediator formation in human M2-like phenotype MDM cells by measuring 15-HEPE formation at 10 uM pre-incubated for 15 mins followed by SACM stimulation and measured after 90 mins by UPLC-MS/MS analysis relative to control; format: functional; settings: time 105 min, 1.75 h
[20] = test system: Macrophage cell line; experiment: Effect on lipid mediator formation in human M2-like phenotype MDM cells by measuring 5-HEPE formation at 10 uM pre-incubated for 15 mins followed by SACM stimulation and measured after 90 mins by UPLC-MS/MS analysis (reference value: 299 +/- 20 pg/ml); format: functional; settings: time 105 min, 1.75 h

Row | inhibition [18] [%] | SMILES | Activity [1] [pg/mL] | Activity [2] [pg/mL] | Activity [3] [%] | Activity [4] [pg/mL] | Activity [5] [pg/mL] | Activity [6] [%] | Activity [7] [%] | Activity [8] [pg/mL] | Activity [9] [pg/mL] | Activity [10] [pg/mL] | Activity [11] [pg/mL] | Activity [12] [%] | Activity [13] [pg/mL] | Activity [14] [%] | Activity [15] [%] | inhibition [16] | Activity [17] [pg/mL] | Activity [19] [%] | Activity [20] [pg/mL]
1 | > 50 | COc1ccc(C2=C/C(=C/c3ccc(O)cc3O)C(=O)O2)cc1 | 80565 | 94519 | 173 | 25017 | 12 | 8 | 11 | 157 | 380 | 419 | 93 | 4 | 24465 | 259 | 167 | inactive | 3416 | 157 | 55
2 | > 50 | Oc1ccc(CCC2CCC(c3ccc(O)cc3)CO2)cc1 (stereo not given) | 74786 | 103809 | 149 | 26605 | 11 | 6 | 18 | 158 | 485 | 331 | 88 | 14 | 28427 | 147 | 105 | inactive | 3850 | 140 | 102
